This assay concerns wild-type E. coli A-1261. The assay is described as follows: Bacterial growth minimal inhibitory concentration of prodrugs, wild-type E. coli A-1261, with or without alkaline phosphatase or esterase. The assay is classed as cell-based. On the procedure: Minimal Inhibitory Concentrations (MICs; mg/L) were determined in cation-adjusted Mueller-Hinton Broth by a microdilution method following the description given in “Methods for Dilution Antimicrobial Susceptibility Tests for Bacteria that Grow Aerobically”, Approved standard, 7th ed., Clinical and Laboratory Standards Institute (CLSI) Document M7-A7, Wayne, Pa., USA (2006).
The compounds of Examples 6 and 21 were tested against wild-type E. coli A-1261 in the absence of alkaline phosphatase or esterase, in the presence of an alkaline phosphatase and in the presence of an esterase. The corresponding antibacterial test results are given in Table 2 hereafter (MICs in mg/L).

Consider one molecule from patent US20190315731A1, “6-(BUTA-1,3-DIYN-1-YL)BENZO[D]THIAZOLE DERIVATIVES” (Idorsia Pharmaceuticals Ltd., priority 2016, published 2019).

Bounds are passed on as bounds.

`C[C@@](CCc1nc2ccc(C#CC#CC3CN(CCOP(=O)(O)O)C3)cc2s1)(C(=O)NO)S(C)(=O)=O` [Example 6, (R)-2-(3-((2-(4-(hydroxyamino)-3-methyl-3-(methylsulfonyl)-4-oxobutyl)benzo[d]thiazol-6-yl)buta-1,3-diyn-1-yl)azetidin-1-yl)ethyl dihydrogen phosphate]: under “alkaline phosphatase 2 i.U./mL”, the “MIC for E. coli A-1261 In the presence of an alkaline phosphatase (2 i.U./mL)” value was 0.5 µg/mL. Under “esterase 10 i.U./mL”, the “MIC for E. coli A-1261 In the presence of an esterase (10 i.U./mL)” value is more than 16 µg/mL. The “MIC for E. coli A-1261 In the absence of alkaline phosphatase or esterase” value (no alkaline phosphatase or esterase) was more than 16 µg/mL.
